The text below walks through data of patent US20260098061A1, “EPHA2-BINDING PENDING PEPTIDE AND COMPOSITION COMPRISING SAME” (PeptiDream Inc., priority 2022, published 2026).

Numbered stars: 1 amine (or outer) side, 2 acyl side, 3 side chain; on linkers, the order of the positions; unused ones are H or OH. Bridge positions count the residues as written; N and C are the ends. Square brackets hold non-standard residues; d marks the D form. Side chains are listed from the residue outwards. Peptide text beside a SMILES is read from it. * marks the point of attachment. NH(1-deoxy-D-glucityl) = OC[C@@H](O)[C@@H](O)[C@H](O)[C@@H](O)CN*; Trp(1-Me,7-Cl) = Cn1cc(C[C@H](N)C(=O)O)c2cccc(Cl)c21; Ala(2-NH2-4-pyridyl) = Nc1cc(C[C@H](N)C(=O)O)ccn1; dPhe(3-CONH2) = NC(=O)c1cccc(C[C@@H](N)C(=O)O)c1; Piperazinyl(4-CH2COOH) = O=C(O)CN1CCN(*)CC1; Trp(1-Me) = Cn1cc(C[C@H](N)C(=O)O)c2ccccc21; 3Pal(6-NH2) = Nc1ccc(C[C@H](N)C(=O)O)cn1; NMe3Pal = CN[C@@H](Cc1cccnc1)C(=O)O; NMeF = CN[C@@H](Cc1ccccc1)C(=O)O; hCit = NC(=O)NCCCC[C@H](N)C(=O)O; 4Pal = N[C@@H](Cc1ccncc1)C(=O)O; Gly(cBu) = N[C@H](C(=O)O)C1CCC1; NMeE = CN[C@@H](CCC(=O)O)C(=O)O; Aad = N[C@@H](CCCC(=O)O)C(=O)O; Cba = N[C@@H](CC1CCC1)C(=O)O; CO = O=C([*:1])[*:2]

In this experiment the target is T1, Recombinant Human EphA2 Fc Protein (Homo sapiens, UniProt P29317).
T1 construct: purchased Elabscience
As to the kind of experiment: SPR interaction analysis (Biacore T200), kinetics of peptides against EphA2. Format: binding. Conditions: Recombinant Human EphA2 Fc Protein captured by Human Antibody Capture kit; single-cycle kinetics; 25° C.; HBS-P+ buffer with 1% DMSO. The method, boiled down:
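KD derived from ka and kd, fitted on baseline-subtracted sensorgrams from single-cycle kinetics of five peptide dilutions. Running buffer: HBS-P+ (pH 7.4) plus 1% DMSO, 25° C, Biacore T200. Recombinant human EphA2-Fc held on an antibody capture surface.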
A general note: Surface plasmon resonance follows binding to a sensor surface in real time, without labels.

As for `C[C@@H](O)[C@@H]1NC(=O)[C@H](Cc2cn(C)c3ccccc23)NC(=O)[C@H](CCCCNC(=O)N2CCN(CC(=O)O)CC2)NC(=O)[C@H](Cc2cn(C)c3c(Cl)cccc23)NC(=O)[C@H](CCC(=O)O)N(C)C(=O)[C@H](CCCC(N)=O)NC(=O)[C@H](C2CCC2)NC(=O)[C@H](CC(N)=O)NC(=O)[C@H](Cc2cccnc2)N(C)C(=O)[C@@H](Cc2cccc(C(N)=O)c2)NC(=O)CSC[C@@H](C(N)=O)NC(=O)[C@H](CCCC(N)=O)NC1=O` [PDC_EphA2-00019440, df3CON-Me3Py-N-Cbg-Hgn-MeE-W1Me7Cl-KCOpipzaa-W1Me-T-Hgn-C-NH2] ({CH2CO}-[dPhe(3-CONH2)][NMe3Pal]N[Gly(cBu)][Aad](NH2)[NMeE][Trp(1-Me,7-Cl)]K([CO-Piperazinyl(4-CH2COOH)])[Trp(1-Me)]T[Aad](NH2)C-NH2; thioether N-12), the Kd – broadly, a measure of binding affinity in units of concentration – is below 1 nM. Turning to `C[C@@H](O)[C@@H]1NC(=O)[C@H](Cc2cn(C)c3ccccc23)NC(=O)[C@H](CCCCNC(=O)N2CCN(CC(=O)O)CC2)NC(=O)[C@H](Cc2cn(C)c3c(Cl)cccc23)NC(=O)[C@H](Cc2ccccc2)N(C)C(=O)[C@H](CCCCNC(=O)N2CCN(CC(=O)O)CC2)NC(=O)[C@H](C2CCC2)NC(=O)[C@H](CC(N)=O)NC(=O)[C@H](Cc2cccnc2)N(C)C(=O)[C@@H](Cc2cccc(C(N)=O)c2)NC(=O)CSC[C@@H](C(N)=O)NC(=O)[C@H](CCCC(N)=O)NC1=O` [PDC_EphA2-00019441, df3CON-Me3Py-A-Cbg-KCOpipzaa-MeF-W1Me7Cl-KCOpipzaa-W1Me-T-Hgn-C-NH2] ({CH2CO}-[dPhe(3-CONH2)][NMe3Pal]N[Gly(cBu)]K([CO-Piperazinyl(4-CH2COOH)])[NMeF][Trp(1-Me,7-Cl)]K([CO-Piperazinyl(4-CH2COOH)])[Trp(1-Me)]T[Aad](NH2)C-NH2; thioether N-12), the Kd is below 1 nM. With `C[C@@H](O)[C@@H]1NC(=O)[C@H](Cc2cn(C)c3ccccc23)NC(=O)[C@H](CCC(=O)NC[C@H](O)[C@@H](O)[C@H](O)[C@H](O)CO)NC(=O)[C@H](Cc2cn(C)c3c(Cl)cccc23)NC(=O)[C@H](Cc2ccccc2)N(C)C(=O)[C@H](CCCCNC(=O)N2CCN(CC(=O)O)CC2)NC(=O)[C@H](C2CCC2)NC(=O)[C@H](CC(N)=O)NC(=O)[C@H](Cc2cccnc2)N(C)C(=O)[C@@H](Cc2cccc(C(N)=O)c2)NC(=O)CSC[C@@H](C(N)=O)NC(=O)[C@H](CCCC(N)=O)NC1=O` [PDC_EphA2-00019442, df3CON-Me3Py-N-Cbg-KCOpipzaa-MeF-W1Me7Cl-Qglucamine-W1Me-T-Hgn-C-NH2] ({CH2CO}-[dPhe(3-CONH2)][NMe3Pal]N[Gly(cBu)]K([CO-Piperazinyl(4-CH2COOH)])[NMeF][Trp(1-Me,7-Cl)]E(NH(1-deoxy-D-glucityl))[Trp(1-Me)]T[Aad](NH2)C-NH2; thioether N-12), the Kd is below 1 nM. Turning to `CC(C)C[C@@H]1NC(=O)[C@H](Cc2ccncc2)NC(=O)[C@H](Cc2ccccc2)NC(=O)CSC[C@@H](C(=O)NCC(N)=O)NC(=O)[C@H](Cc2cn(C)c3ccccc23)NC(=O)[C@H](Cc2ccccc2)N(C)C(=O)[C@H](Cc2cn(C)c3ccccc23)NC(=O)CNC1=O` [PDC_EphA2-00020295-L092, F-4Py-L-G-W1Me-MeF-W1Me-C-G-NH2] ({CH2CO}-F[4Pal]LG[Trp(1-Me)][NMeF][Trp(1-Me)]CG-NH2; thioether N-8), the Kd was 100 to 400 nM. The same measure for `CC(C)C[C@@H]1NC(=O)[C@H](Cc2ccnc(N)c2)NC(=O)[C@H](Cc2ccccc2)NC(=O)CSC[C@@H](C(N)=O)NC(=O)[C@H](Cc2cn(C)c3ccccc23)NC(=O)[C@H](Cc2ccccc2)N(C)C(=O)[C@H](Cc2cn(C)c3ccccc23)NC(=O)[C@H](CCCCNC(N)=O)NC1=O` [PDC_EphA2-00020708, F-4Py2NH2-L-Hcit-W1Me-MeF-W1Me-C-NH2] ({CH2CO}-F[Ala(2-NH2-4-pyridyl)]L[hCit][Trp(1-Me)][NMeF][Trp(1-Me)]C-NH2; thioether N-8): 100 to 400 nM; for `C[C@H]1NC(=O)CSC[C@@H](C(=O)NCC(N)=O)NC(=O)[C@H](Cc2cn(C)c3ccccc23)NC(=O)[C@H](CCCCNC(N)=O)NC(=O)[C@H](Cc2cn(C)c3ccccc23)NC(=O)[C@H](CC(N)=O)NC(=O)[C@H]([C@@H](C)O)NC(=O)[C@H](CC2CCC2)NC(=O)[C@H](CC(N)=O)NC(=O)[C@H](Cc2ccccc2)N(C)C1=O` [PDC_EphA2-00021407-L092, da-MeF-N-Cba-T-N-W1Me-Hcit-W1Me-C-G-NH2] ({CH2CO}-[dA][NMeF]N[Cba]TN[Trp(1-Me)][hCit][Trp(1-Me)]CG-NH2; thioether N-10): 100 to 400 nM. As for `CC(C)C[C@@H]1NC(=O)[C@H](CC(N)=O)NC(=O)[C@H](Cc2ccncc2)NC(=O)[C@H](Cc2ccccc2)NC(=O)CSC[C@@H](C(=O)NCC(N)=O)NC(=O)[C@H](Cc2cn(C)c3ccccc23)NC(=O)[C@H](Cc2ccc(N)nc2)NC(=O)[C@H](Cc2cn(C)c3ccccc23)NC(=O)[C@H](Cc2ccccc2)N(C)C(=O)[C@H](CCC(=O)O)NC1=O` [PDC_EphA2-00022057-L092, F-4Py-N-L-E-MeF-W1Me-3Py6NH2-W1Me-C-G-NH2] ({CH2CO}-F[4Pal]NLE[NMeF][Trp(1-Me)][3Pal(6-NH2)][Trp(1-Me)]CG-NH2; thioether N-10), the figure is 10 to 100 nM. On to `CC(C)C[C@@H]1NC(=O)[C@H](CC(N)=O)NC(=O)[C@H](Cc2c[nH]cn2)NC(=O)[C@H](Cc2ccccc2)NC(=O)CSC[C@@H](C(N)=O)NC(=O)[C@H](Cc2cn(C)c3ccccc23)NC(=O)[C@H](CCCCNC(N)=O)NC(=O)[C@H](Cc2cn(C)c3ccccc23)NC(=O)[C@H](Cc2ccccc2)N(C)C(=O)[C@H](CO)NC1=O` [PDC_EphA2-00022417, F-H-N-L-S-MeF-W1Me-Hcit-W1Me-C-NH2] ({CH2CO}-FHNLS[NMeF][Trp(1-Me)][hCit][Trp(1-Me)]C-NH2; thioether N-10), for which the Kd is 10 to 100 nM. With `CC(C)C[C@@H]1NC(=O)[C@H](Cc2ccnc(N)c2)NC(=O)[C@H](Cc2ccccc2)NC(=O)CSC[C@@H](C(=O)NCC(N)=O)NC(=O)[C@H](Cc2cn(C)c3ccccc23)NC(=O)[C@H](Cc2ccccc2)N(C)C(=O)[C@H](Cc2cn(C)c3ccccc23)NC(=O)[C@H](CCCCNC(N)=O)NC1=O` [PDC_EphA2-00022601, F-4Py2NH2-L-Hcit-W1Me-MeF-W1Me-C-G-NH2] ({CH2CO}-F[Ala(2-NH2-4-pyridyl)]L[hCit][Trp(1-Me)][NMeF][Trp(1-Me)]CG-NH2; thioether N-8), the equilibrium dissociation constant (Kd) lay in the range of 100 to 400 nM. Regarding `CC(=O)NCCCC[C@H](NC(=O)[C@@H]1CSCC(=O)N[C@@H](Cc2ccccc2)C(=O)N[C@@H](Cc2ccnc(N)c2)C(=O)N[C@@H](CC(C)C)C(=O)N[C@@H](CCCCNC(N)=O)C(=O)N[C@@H](Cc2cn(C)c3ccccc23)C(=O)N(C)[C@@H](Cc2ccccc2)C(=O)N[C@@H](Cc2cn(C)c3ccccc23)C(=O)N1)C(N)=O` [PDC_EphA2-00022602, F-4Py2NH2-L-Hcit-W1Me-MeF-W1Me-C-KAc-NH2] ({CH2CO}-F[Ala(2-NH2-4-pyridyl)]L[hCit][Trp(1-Me)][NMeF][Trp(1-Me)]CK(Ac)-NH2; thioether N-8), the Kd fell in the range of 100 to 400 nM. The same measure for `CC(=O)NCCCC[C@@H](NC(=O)[C@@H]1CSCC(=O)N[C@@H](Cc2ccccc2)C(=O)N[C@@H](Cc2ccnc(N)c2)C(=O)N[C@@H](CC(C)C)C(=O)N[C@@H](CCCCNC(N)=O)C(=O)N[C@@H](Cc2cn(C)c3ccccc23)C(=O)N(C)[C@@H](Cc2ccccc2)C(=O)N[C@@H](Cc2cn(C)c3ccccc23)C(=O)N1)C(N)=O` [PDC_EphA2-00022603, F-4Py2NH2-L-Hcit-W1Me-MeF-W1Me-C-dkAc-NH2] ({CH2CO}-F[Ala(2-NH2-4-pyridyl)]L[hCit][Trp(1-Me)][NMeF][Trp(1-Me)]C[dK](Ac)-NH2; thioether N-8): 100 to 400 nM.
